Measured values taken from patent US8192962B2, “Processes for detecting toxic substances” (Daikin Industries, Ltd., priority 2001, dated 2012).

Test system: Metabolism protein genes
Assay: DNA chip mRNA expression in yeast, metabolism protein genes (Table 7)
Type: cell-based, Saccharomyces cerevisiae S288C
Outline: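 Values are treated/untreated fluorescence ratios from a whole-genome yeast DNA chip hybridized over 12 hours at 65° C with Cy3- or Cy5-labelled cDNA from poly(A) mRNA. Log-phase S288C yeast in YPD at 25° C had received a single toxic chemical for two hours, dosed to slow growth without killing.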

Structure (SMILES): Oc1cc(Cl)c(Cl)cc1Cl [(6), 2,4,5-trichlorophenol]
- The level of expressed mRNA in the presence of chemical substance/The level of expressed mRNA in the absence of chemical substance (yeast gene YAL012W): 1.6
- The level of expressed mRNA in the presence of chemical substance/The level of expressed mRNA in the absence of chemical substance (yeast gene YAL038W): 1.3
- The level of expressed mRNA in the presence of chemical substance/The level of expressed mRNA in the absence of chemical substance (yeast gene YBL001C): 2.4
- level of expressed mRNA in the presence/in the absence of chemical substance (yeast gene YBR003W): 1.2
- level of expressed mRNA in the presence/in the absence of chemical substance (yeast gene YBR011C): 2.0
- level of expressed mRNA in the presence/in the absence of chemical substance (yeast gene YBR020W): 0.8
- The level of expressed mRNA in the presence of chemical substance/The level of expressed mRNA in the absence of chemical substance (yeast gene YBR023C): 0.5
- The level of expressed mRNA in the presence of chemical substance/The level of expressed mRNA in the absence of chemical substance (yeast gene YBR029C): 0.8
- The level of expressed mRNA in the presence of chemical substance/The level of expressed mRNA in the absence of chemical substance (yeast gene YBR111C): 3.0
- The level of expressed mRNA in the presence of chemical substance/The level of expressed mRNA in the absence of chemical substance (yeast gene YBR183W): 2.5
- The level of expressed mRNA in the presence of chemical substance/The level of expressed mRNA in the absence of chemical substance (yeast gene YBR222C): 1.3
- The level of expressed mRNA in the presence of chemical substance/The level of expressed mRNA in the absence of chemical substance (yeast gene YBR256C): 2.0
- The level of expressed mRNA in the presence of chemical substance/The level of expressed mRNA in the absence of chemical substance (yeast gene YCL009C): 1.8
- The level of expressed mRNA in the presence of chemical substance/The level of expressed mRNA in the absence of chemical substance (yeast gene YCL064C): 3.3
- level of expressed mRNA in the presence/in the absence of chemical substance (yeast gene YCR010C): 1.3
- level of expressed mRNA in the presence/in the absence of chemical substance (yeast gene YCR034W): 0.3
- The level of expressed mRNA in the presence of chemical substance/The level of expressed mRNA in the absence of chemical substance (yeast gene YCR048W): 0.2
- The level of expressed mRNA in the presence of chemical substance/The level of expressed mRNA in the absence of chemical substance (yeast gene YCR098C): 1.6
- The level of expressed mRNA in the presence of chemical substance/The level of expressed mRNA in the absence of chemical substance (yeast gene YDR009W): 2.4
- The level of expressed mRNA in the presence of chemical substance/The level of expressed mRNA in the absence of chemical substance (yeast gene YDR019C): 4.8
- level of expressed mRNA in the presence/in the absence of chemical substance (yeast gene YDR050C): 1.7
- level of expressed mRNA in the presence/in the absence of chemical substance (yeast gene YDR073W): 1.3
- level of expressed mRNA in the presence/in the absence of chemical substance (yeast gene YDR123C): 0.7
- level of expressed mRNA in the presence/in the absence of chemical substance (yeast gene YDR178W): 2.1
- level of expressed mRNA in the presence/in the absence of chemical substance (yeast gene YDR277C): 1.1
- level of expressed mRNA in the presence/in the absence of chemical substance (yeast gene YDR284C): 1.8
- level of expressed mRNA in the presence/in the absence of chemical substance (yeast gene YDR345C): 1.2
- The level of expressed mRNA in the presence of chemical substance/The level of expressed mRNA in the absence of chemical substance (yeast gene YDR380W): 0.4
- level of expressed mRNA in the presence/in the absence of chemical substance (yeast gene YDR400W): 1.1
- level of expressed mRNA in the presence/in the absence of chemical substance (yeast gene YDR408C): 0.9
- level of expressed mRNA in the presence/in the absence of chemical substance (yeast gene YDR483W): 1.5
- The level of expressed mRNA in the presence of chemical substance/The level of expressed mRNA in the absence of chemical substance (yeast gene YDR497C): 0.6
- The level of expressed mRNA in the presence of chemical substance/The level of expressed mRNA in the absence of chemical substance (yeast gene YDR502C): 1.5
- The level of expressed mRNA in the presence of chemical substance/The level of expressed mRNA in the absence of chemical substance (yeast gene YDR516C): 1.8
- level of expressed mRNA in the presence/in the absence of chemical substance (yeast gene YEL063C): 1.3
- The level of expressed mRNA in the presence of chemical substance/The level of expressed mRNA in the absence of chemical substance (yeast gene YER014W): 4.0
- level of expressed mRNA in the presence/in the absence of chemical substance (yeast gene YER015W): 0.9
- The level of expressed mRNA in the presence of chemical substance/The level of expressed mRNA in the absence of chemical substance (yeast gene YER026C): 2.5
- The level of expressed mRNA in the presence of chemical substance/The level of expressed mRNA in the absence of chemical substance (yeast gene YER053C): 2.8
- The level of expressed mRNA in the presence of chemical substance/The level of expressed mRNA in the absence of chemical substance (yeast gene YER069W): 1.3
- level of expressed mRNA in the presence/in the absence of chemical substance (yeast gene YER081W): 1.1
- The level of expressed mRNA in the presence of chemical substance/The level of expressed mRNA in the absence of chemical substance (yeast gene YER096W): 1.2
- level of expressed mRNA in the presence/in the absence of chemical substance (yeast gene YER120W): 1.5
- The level of expressed mRNA in the presence of chemical substance/The level of expressed mRNA in the absence of chemical substance (yeast gene YER178W): 2.5
- level of expressed mRNA in the presence/in the absence of chemical substance (yeast gene YFL011W): 1.0
- The level of expressed mRNA in the presence of chemical substance/The level of expressed mRNA in the absence of chemical substance (yeast gene YFL014W): 9.3
- The level of expressed mRNA in the presence of chemical substance/The level of expressed mRNA in the absence of chemical substance (yeast gene YFL030W): 1.3
- The level of expressed mRNA in the presence of chemical substance/The level of expressed mRNA in the absence of chemical substance (yeast gene YFL031W): 0.3
- The level of expressed mRNA in the presence of chemical substance/The level of expressed mRNA in the absence of chemical substance (yeast gene YFL056C): 0.6
- The level of expressed mRNA in the presence of chemical substance/The level of expressed mRNA in the absence of chemical substance (yeast gene YFL057C): 1.2
- The level of expressed mRNA in the presence of chemical substance/The level of expressed mRNA in the absence of chemical substance (yeast gene YFR047C): 2.0
- level of expressed mRNA in the presence/in the absence of chemical substance (yeast gene YGL012W): 1.6
- The level of expressed mRNA in the presence of chemical substance/The level of expressed mRNA in the absence of chemical substance (yeast gene YGL022W): 0.9
- level of expressed mRNA in the presence/in the absence of chemical substance (yeast gene YGL115W): 1.2
- The level of expressed mRNA in the presence of chemical substance/The level of expressed mRNA in the absence of chemical substance (yeast gene YGL126W): 1.6
- level of expressed mRNA in the presence/in the absence of chemical substance (yeast gene YGL205W): 1.6
- The level of expressed mRNA in the presence of chemical substance/The level of expressed mRNA in the absence of chemical substance (yeast gene YGL209W): 1.0
- The level of expressed mRNA in the presence of chemical substance/The level of expressed mRNA in the absence of chemical substance (yeast gene YGL248W): 2.7
- The level of expressed mRNA in the presence of chemical substance/The level of expressed mRNA in the absence of chemical substance (yeast gene YGL253W): 2.4
- The level of expressed mRNA in the presence of chemical substance/The level of expressed mRNA in the absence of chemical substance (yeast gene YGR037C): 1.1
- The level of expressed mRNA in the presence of chemical substance/The level of expressed mRNA in the absence of chemical substance (yeast gene YGR055W): 1.1
- level of expressed mRNA in the presence/in the absence of chemical substance (yeast gene YGR096W): 1.7
- level of expressed mRNA in the presence/in the absence of chemical substance (yeast gene YGR191W): 1.1
- The level of expressed mRNA in the presence of chemical substance/The level of expressed mRNA in the absence of chemical substance (yeast gene YGR194C): 1.9
- level of expressed mRNA in the presence/in the absence of chemical substance (yeast gene YGR204W): 0.6
- The level of expressed mRNA in the presence of chemical substance/The level of expressed mRNA in the absence of chemical substance (yeast gene YGR244C): 2.6
- The level of expressed mRNA in the presence of chemical substance/The level of expressed mRNA in the absence of chemical substance (yeast gene YGR256W): 6.2
- The level of expressed mRNA in the presence of chemical substance/The level of expressed mRNA in the absence of chemical substance (yeast gene YGR282C): 2.2
- level of expressed mRNA in the presence/in the absence of chemical substance (yeast gene YHR025W): 0.8
- The level of expressed mRNA in the presence of chemical substance/The level of expressed mRNA in the absence of chemical substance (yeast gene YHR111W): 1.3
- level of expressed mRNA in the presence/in the absence of chemical substance (yeast gene YHR123W): 1.0
- The level of expressed mRNA in the presence of chemical substance/The level of expressed mRNA in the absence of chemical substance (yeast gene YHR137W): 0.7
- The level of expressed mRNA in the presence of chemical substance/The level of expressed mRNA in the absence of chemical substance (yeast gene YHR174W): 1.5
- The level of expressed mRNA in the presence of chemical substance/The level of expressed mRNA in the absence of chemical substance (yeast gene YHR176W): 2.3
- level of expressed mRNA in the presence/in the absence of chemical substance (yeast gene YHR210C): 0.7
- level of expressed mRNA in the presence/in the absence of chemical substance (yeast gene YIL006W): 0.3
- The level of expressed mRNA in the presence of chemical substance/The level of expressed mRNA in the absence of chemical substance (yeast gene YIL045W): 1.7
- The level of expressed mRNA in the presence of chemical substance/The level of expressed mRNA in the absence of chemical substance (yeast gene YIL107C): 1.0
- The level of expressed mRNA in the presence of chemical substance/The level of expressed mRNA in the absence of chemical substance (yeast gene YIL154C): 1.1
- The level of expressed mRNA in the presence of chemical substance/The level of expressed mRNA in the absence of chemical substance (yeast gene YIL155C): 1.4
- The level of expressed mRNA in the presence of chemical substance/The level of expressed mRNA in the absence of chemical substance (yeast gene YIL167W): 7.7
- The level of expressed mRNA in the presence of chemical substance/The level of expressed mRNA in the absence of chemical substance (yeast gene YIR034C): 1.3
- The level of expressed mRNA in the presence of chemical substance/The level of expressed mRNA in the absence of chemical substance (yeast gene YIR036C): 0.7
- The level of expressed mRNA in the presence of chemical substance/The level of expressed mRNA in the absence of chemical substance (yeast gene YJL031C): 1.6
- The level of expressed mRNA in the presence of chemical substance/The level of expressed mRNA in the absence of chemical substance (yeast gene YJL068C): 1.1
- The level of expressed mRNA in the presence of chemical substance/The level of expressed mRNA in the absence of chemical substance (yeast gene YJL088W): 2.8
- The level of expressed mRNA in the presence of chemical substance/The level of expressed mRNA in the absence of chemical substance (yeast gene YJL099W): 2.0
- level of expressed mRNA in the presence/in the absence of chemical substance (yeast gene YJL121C): 1.1
- level of expressed mRNA in the presence/in the absence of chemical substance (yeast gene YJL167W): 1.3
- The level of expressed mRNA in the presence of chemical substance/The level of expressed mRNA in the absence of chemical substance (yeast gene YJL172W): 3.8
- The level of expressed mRNA in the presence of chemical substance/The level of expressed mRNA in the absence of chemical substance (yeast gene YJL219W): 1.5
- The level of expressed mRNA in the presence of chemical substance/The level of expressed mRNA in the absence of chemical substance (yeast gene YJL221C): 6.6
- level of expressed mRNA in the presence/in the absence of chemical substance (yeast gene YJR077C): 0.9
- The level of expressed mRNA in the presence of chemical substance/The level of expressed mRNA in the absence of chemical substance (yeast gene YJR137C): 1.5
- level of expressed mRNA in the presence/in the absence of chemical substance (yeast gene YJR143C): 0.6
- The level of expressed mRNA in the presence of chemical substance/The level of expressed mRNA in the absence of chemical substance (yeast gene YJR148W): 2.0
- The level of expressed mRNA in the presence of chemical substance/The level of expressed mRNA in the absence of chemical substance (yeast gene YJR155W): 1.4
